Data as given in patent US8445461B2, “Pharmaceutical composition for meniere's disease” (Setsuko Takeda, priority 2007, dated 2013).

How the values were obtained:
[1] = system: guinea pigs; test: Reference Example 7: erythritol or isosorbitol added jelly, conditions of feces and gastrointestinal tract; assay type: in vivo
From the text: As described hereinbefore, erythritol or isosorbitol as saccharides or sugar alcohols added jelly as a thickner were orally administered to 10 guinea pigs (280 to 350 g body weight) as shown in Table 41. The conditions of feces were observed.

[2] = system: guinea pigs excreting normal feces; test: Antidiarrheal effect: observation of feces after oral administration of saccharides or sugar alcohols with or without polysaccharides (Example 1); assay type: in vivo
Method: The criteria for analyzing the conditions of feces (hardness, shape and spaces of feces in the intestine) are as shown in Table 2:
The hardness and microscopic findings of feces from the group administered with distilled water were assessed as “Normal” scoring 3, the feces having normal shape and the shape could rather easily change by pushing with fingers were assessed as “Slightly soft” scoring 2, those of which the shape had already changed or it could quite easily change by pushed with fingers were assessed as “Soft” scoring 1, and those of which the shape is muddy or watery or of no shape were assessed “Muddy” scoring 0. To be precese, there are no watery feces because of the nature of diets and thus the muddy feces correspond to watery and muddy feces in human.
Since the muddy feces comprise large content of water, they induce the high abdominal pressure and the flatulence and distension. […] In the case of gas generation, it appears that noxious symptom such as the flatulence and distension are synergistically deteriorated. Therefore, we assessed not only based on the hardness of feces, but also the size, smoothness of the surface and amount of feces.
In these experiments, I observed is the diarrhea caused by saccharides or sugar alcohols and antidiarrhreal effect of saccharides. Guinea pigs orally received saccharides or sugar alcohols, for example tetrose such as erythritol, pentose such as xylitol or xylose, hexose such as isosorbitol or the like in combination with or without polysaccharides for observation of the feces up to 6 hours after the administration.
Guinea pigs (body weight 280 to 320 g, normal feces) were divided into four groups: for Group 1-a, xylitol alone (Reference Example 1), or xylitol and xanthan gum or pectin; for Group 1-b, xylose alone (Reference Example 2), xylose and xanthan gum or pectin; for Group 1-c, erythritol alone (Reference Example 3), erythritol and pectin, erythritol and xanthan gum, or erythritol, pectin and natural aluminum silicate gel or calcium carbonate; and for Group 1-d, isosorbitol alone (Reference Example 4), or isosorbitol and xanthan gum or pectin were orally administered, respectively. The compounds are dissolved in distilled water and 8 ml/kg of said solution were administered as a single dose.
The feces were observed during 6 hours after the administration. When the animals fell into the most serious condition, the hardness and shape of the feces from said animals were assessed as the effect by saccharides or sugar alcohols in the animals.

[3] = agent 2.8 g/kg oral + Jelly 0.05 g/kg, 5 animals
[4] = agent 2.8 g/kg oral + Jelly 0.1 g/kg, 5 animals
[5] = agent 2.8 g/kg oral + Jelly 0.15 g/kg, 5 animals
[6] = agent 2.8 g/kg oral, no additive dosage (agent alone)
[7] = active agent 2.8 g/kg oral, alone or with additives of the label, most serious condition within 6 hours

Hardness of feces: Muddy (number of animals) [1, 3]: 5
Hardness of feces: Normal (number of animals) [1, 3]: 0
Hardness of feces: Slightly soft (number of animals) [1, 3]: 0
Hardness of feces: Soft (number of animals) [1, 3]: 0
Hardness of feces: Muddy (number of animals) [1, 4]: 5
Hardness of feces: Normal (number of animals) [1, 4]: 0
Hardness of feces: Slightly soft (number of animals) [1, 4]: 0
Hardness of feces: Soft (number of animals) [1, 4]: 0
Hardness of feces: Muddy (number of animals) [1, 5]: 5
Hardness of feces: Normal (number of animals) [1, 5]: 0
Hardness of feces: Slightly soft (number of animals) [1, 5]: 0
Hardness of feces: Soft (number of animals) [1, 5]: 0
Hardness of feces: Muddy (number of animals) [1, 6]: 5
Hardness of feces: Normal (number of animals) [1, 6]: 0
Hardness of feces: Slightly soft (number of animals) [1, 6]: 0
Hardness of feces: Soft (number of animals) [1, 6]: 0
Time after administration of the peak (most serious) diarrhea ([2]; active agent 2.8 g/kg oral, alone or with additive of the label): Three hours after
Hardness of feces: Hard (number of animals) [2, 7]: 0
Hardness of feces: Muddy (number of animals) [2, 7]: 5
Hardness of feces: Normal (number of animals) [2, 7]: 0
Hardness of feces: Slightly soft (number of animals) [2, 7]: 0
Hardness of feces: Soft (number of animals) [2, 7]: 0
Animals in which muddy feces continued up to 6 hours after ([2]; erythritol 2.8 g/kg alone, 5 animals): 3
Compound: OC[C@@H](O)[C@@H](O)CO [Erythritol, erythritol]
